According to patent US10087188B2, “Benzamide imidazopyrazine Btk inhibitors” (MERCK SHARP & DOHME CORP., priority 2014, dated 2018):

Columns and labels:
[1] = target: BTK enzyme (recombinant full-length BTK, hBTK) (Homo sapiens (Human), UniProt Q06187); assay: Btk enzyme activity assay, LANCE TR-FRET; assay type: biochemical; details: 50 pM hBTK, 2 μM biotin-A5-peptide, 25 μM ATP; 60 minute compound & enzyme incubation; read-out: BTK binding IC50
Experimental: Btk Enzyme Activity Assay Methods
BTK enzymatic activity was determined with the LANCE (Lanthanide Chelate Excite) TR-FRET (Time-resolved fluorescence resonance energy transfer) assay. […] After 60 minutes incubation with detection reagents, reaction plates were read on a PerkinElmer EnVision plate reader using standard TR-FRET protocol.

[2] = tested on: HeLa cells; assay: [3H] Adenosine uptake assay; assay type: cell-based; details: Homo sapiens, HeLa, accumulation of tritiated adenosine into HeLa cells; compound concentration range 10 μM to 0.032 nM; read-out: ADU inhibition IC50 (adenosine uptake inhibition potency)
Procedure, shortened: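 Accumulation of tritiated adenosine in adherent HeLa cells, detected by scintillant-plate coincidence counting, gives IC50 via 4-parameter robust fit. Compound (constant 0.25% DMSO) applied 30 min ahead, then 60 min radiolabel exposure (added from 500 nM solution), ambient conditions, HBSS with 5% FBS.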

Sequence of BTK enzyme (recombinant full-length BTK, hBTK) (Q06187 whole entry): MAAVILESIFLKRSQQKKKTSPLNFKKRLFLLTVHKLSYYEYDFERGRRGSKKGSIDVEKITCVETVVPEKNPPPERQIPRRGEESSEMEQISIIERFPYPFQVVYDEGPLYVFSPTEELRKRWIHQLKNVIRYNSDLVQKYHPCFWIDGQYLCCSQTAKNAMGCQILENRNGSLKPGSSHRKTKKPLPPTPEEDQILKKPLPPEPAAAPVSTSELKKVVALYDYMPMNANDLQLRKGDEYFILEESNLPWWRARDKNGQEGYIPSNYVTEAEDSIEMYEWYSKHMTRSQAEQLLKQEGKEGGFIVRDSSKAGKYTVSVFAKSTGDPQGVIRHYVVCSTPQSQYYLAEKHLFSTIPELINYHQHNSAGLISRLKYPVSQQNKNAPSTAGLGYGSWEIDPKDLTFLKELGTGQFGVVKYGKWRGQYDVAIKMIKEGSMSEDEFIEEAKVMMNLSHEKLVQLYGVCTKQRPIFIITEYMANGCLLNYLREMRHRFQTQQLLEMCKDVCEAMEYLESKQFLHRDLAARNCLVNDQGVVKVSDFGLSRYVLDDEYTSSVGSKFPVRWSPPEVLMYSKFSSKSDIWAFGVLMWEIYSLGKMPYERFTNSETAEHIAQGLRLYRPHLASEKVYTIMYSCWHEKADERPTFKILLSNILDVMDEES

IC50 [1] [nM] | IC50 [2] [nM] | SMILES
0.47 | 10000 | CCOc1cc(C(=O)Nc2cc(C(F)(F)F)ccn2)cc(F)c1-c1nc([C@@]2(C)CC[C@](C)(C(=O)O)C2)n2ccnc(N)c12 [Example 126, (1S,3S)-3-[8-amino-1-(2-ethoxy-6-fluoro-4-{[4-(trifluoromethyl)pyridin-2-yl]carbamoyl}phenyl)imidazo[1,5-a]pyrazin-3-yl]-1,3-dimethylcyclopentane carboxylic acid]
8.2 | 10000 | C[C@@]1(C(=O)O)CC[C@](C)(c2nc(-c3ccc(C(=O)Nc4cc(C(F)(F)F)ccn4)cc3)c3c(N)nccn23)C1 [Example 81, (1R.3S)-3-[8-amino-1-(4-{[4-(trifluoromethyl)pyridin-2-yl]carbamoyl}phenyl)imidazo[1,5-a]pyrazin-3-yl]-1,3-dimethylcyclopentane carboxylic acid]
0.5 | 2770 | CC1(C(=O)O)CCC(C)(c2nc(-c3ccc(C(=O)Nc4cc(C(F)(F)F)ccn4)cc3F)c3c(N)nccn23)CC1 (stereo not drawn) [Example 134, 4-[8-amino-1-(2-fluoro-4-{[4-(trifluoromethyl)pyridin-2-yl]carbamoyl}phenyl)imidazo[1,5-a]pyrazin-3-yl]-1,4-dimethylcyclohexane-carboxylic acid]
923 | 10000 | C[C@H]1CO[C@@H](c2nc(-c3ccc(C(=O)Nc4cc(C(F)F)ccn4)cc3F)c3c(N)nccn23)CN1[C@H]1CC[C@](C)(C(=O)O)CC1 [Example 208, trans-4-{(2R,5S)-2-[8-amino-1-(4-{[4-(difluoromethyl)pyridin-2-yl]carbamoyl}-2-fluorophenyl)imidazo[1,5-a]pyrazin-3-yl]-5-methylmorpholin-4-yl}-1-methylcyclohexanecarboxylic acid]
1 | 10000 | C[C@H]1CO[C@@H](c2nc(-c3ccc(C(=O)Nc4cc(C(F)F)ccn4)cc3)c3c(N)nccn23)CN1[C@H]1CC[C@](C)(C(=O)O)CC1 [Example 206, trans-4-{(2R,5S)-2-[8-amino-1-(4-{[4-(difluoromethyl)pyridin-2-yl]carbamoyl}phenyl)imidazo [1,5-a]pyrazin-3-yl]-5-methylmorpholin-4-yl}-1-methylcyclohexanecarboxylic acid]
0.56 | 2840 | C[C@H]1CO[C@@H](c2nc(-c3ccc(C(=O)Nc4cc(C(F)(F)F)ccn4)cc3F)c3c(N)nccn23)CN1[C@H]1CC[C@](C)(C(=O)O)CC1 [Example 193, trans-4-{(2R,5S)-2-[8-amino-1-(2-fluoro-4-{[4-(trifluoromethyl)pyridin-2-yl]carbamoyl}phenyl)imidazo [1,5-a]pyrazin-3-yl]-5-methylmorpholin-4-yl}-1-methylcyclohexanecarboxylic acid]
0.92 | 2750 | CCOc1cc(C(=O)Nc2cc(C(F)(F)F)ccn2)c(F)cc1-c1nc([C@@H]2CC[C@](C)(C(=O)O)C2(C)C)n2ccnc(N)c12 [Example 114, (1S,3R)-3-[8-amino-1-(2-ethoxy-5-fluoro-4-{[4-(trifluoromethyl)pyridin-2-yl]carbamoyl}phenyl)imidazo[1,5-a]pyrazin-3-yl]-1,2,2-trimethylcyclopentane carboxylic acid]
0.6 | 6060 | Nc1nccn2c(C34CCC(C(=O)O)(CC3)C4)nc(-c3ccc(C(=O)Nc4cc(C(F)(F)F)ccn4)cc3)c12 [Example 65, 4-[8-amino-1-(4-{[4-(trifluoromethyl)pyridin-2-yl]carbamoyl}phenyl)imidazo[1,5-a]pyrazin-3-yl]bicyclo[2.2.1] heptane-1-carboxylic acid]
4 | 10000 | CCOc1cc(C(=O)Nc2cc(C(F)(F)F)ccn2)c(F)cc1-c1nc(C2(C)CCC(C)(C(=O)O)CC2)n2ccnc(N)c12 (stereo not drawn) [Example 120, 4-[8-amino-1-(2-ethoxy-5-fluoro-4-{[4-(trifluoromethyl)pyridin-2-yl]carbamoyl}phenyl)imidazo[1,5-a]pyrazin-3-yl]-1,4-dimethylcyclohexane-carboxylic acid]
3.2 | 1390 | CC(C)[C@@]1(C(=O)O)CC[C@H](c2nc(-c3ccc(C(=O)Nc4cc(C(F)(F)F)ccn4)cc3)c3c(N)ncc(Cl)n23)C1 [Example 107, (1R,3S)-3-[8-amino-5-chloro-1-(4-{[4-(trifluoromethyl)pyridin-2-yl]carbamoyl}phenyl)imidazo[1,5-a]pyrazin-3-yl]-1-(1-methylethyl) cyclopentane-carboxylic acid]
1.7 | 4040 | C[C@H]1CO[C@@H](c2nc(-c3ccc(C(=O)Nc4cc(C(F)(F)F)ccn4)cc3F)c3c(N)nccn23)CN1[C@H]1CC[C@@](C)(C(=O)O)CC1 [Example 194, cis-4-{(2R,5S)-2-[8-amino-1-(2-fluoro-4-{[4-(trifluoromethyl)pyridin-2-yl]carbamoyl}phenyl)imidazo [1,5-a]pyrazin-3-yl]-5-methylmorpholin-4-yl}-1-methylcyclohexanecarboxylic acid]
2.6 | 10000 | CCOc1cc(C(=O)Nc2cc(C(F)(F)F)ccn2)ccc1-c1nc(C23CCC(C(=O)O)(CC2=O)C(=O)C3)n2ccnc(N)c12 (stereo not drawn) [Example 64, 4-[8-amino-1-(2-ethoxy-4-{[4-(trifluoromethyl)pyridin-2-yl]carbamoyl}phenyl)imidazo[1,5-a]pyrazin-3-yl]-2,5-dioxobicyclo[2.2.2] octane-1-carboxylic acid]
21.7 | 10000 | CCOc1cc(C(=O)Nc2cc(C(F)(F)F)ccn2)ccc1-c1nc([C@@H]2CC[C@](C(=O)O)(C(C)C)C2)n2c(Cl)cnc(N)c12 [Example 112, (1R,3R)-3-[8-amino-5-chloro-1-(2-ethoxy-4-{[4-(trifluoromethyl)pyridin-2-yl]carbamoyl}phenyl)imidazo[1,5-a]pyrazin-3-yl]-1-(1-methylethyl) cyclopentane-carboxylic acid]
9.4 | 1240 | CC(C)(C(=O)O)N1CCC[C@@H](c2nc(-c3ccc(C(=O)Nc4cc(C(F)(F)F)ccn4)cc3F)c3c(N)nccn23)C1 [Example 186, 2-{(3R)-3-[8-amino-1-(2-fluoro-4-{[4-(trifluoromethyl)pyridin-2-yl]carbamoyl}phenyl)imidazo [1,5-a]pyrazin-3-yl]piperidin-1-yl}-2-methylpropanoic acid]
2.6 | 2480 | CC1(C(=O)O)CCCC(c2nc(-c3ccc(C(=O)Nc4cc(C5CC5)ccn4)cc3)c3c(N)nccn23)C1 (stereo not drawn) [Example 153, 3-(8-amino-1-{4-[(4-cyclopropylpyridin-2-yl)carbamoyl]phenyl}imidazo[1,5-a]pyrazin-3-yl)-1-methylcyclohexane-carboxylic acid]
0.76 | 4580 | CC(C)[C@@]1(C(=O)O)CC[C@@H](N2C[C@H](c3nc(-c4ccc(C(=O)Nc5cc(C(F)(F)F)ccn5)cc4F)c4c(N)ncc(Cl)n34)OC[C@@H]2C)C1 [Example 202, (1R,3R)-3-{(2R,5S)-2-[8-amino-5-chloro-1-(2-fluoro-4-{[4-(trifluoromethyl)pyridin-2-yl]carbamoyl}phenyl)imidazo [1,5-a]pyrazin-3-yl]-5-methylmorpholin-4-yl}-1-(1-methylethyl) cyclopentanecarboxylic acid]
1.5 | 6270 | C[C@H]1CO[C@@H](c2nc(-c3ccc(C(=O)Nc4cc(C5CC5)ccn4)cc3F)c3c(N)nccn23)CN1[C@H]1CC[C@](C)(C(=O)O)CC1 [Example 210, trans-4-[(2R,5S)-2-(8-amino-1-{4-[(4-cyclopropylpyridin-2-yl)carbamoyl]-2-fluorophenyl}imidazo[1,5-a]pyrazin-3-yl)-5-methylmorpholin-4-yl]-1-methylcyclohexanecarboxylic acid]
1.2 | 4320 | CC1(C)[C@@H](C(=O)O)CC[C@@]1(C)c1nc(-c2ccc(C(=O)Nc3cc(C(F)(F)F)ccn3)cc2)c2c(N)nccn12 [Example 142, (1S,3R)-3-[8-amino-1-(4-{[4-(trifluoromethyl)pyridin-2-yl]carbamoyl}phenyl)imidazo[1,5-a]pyrazin-3-yl]-2,2,3-trimethylcyclopentane carboxylic acid]
7.5 | 10000 | CCOc1cc(C(=O)Nc2cc(C(F)(F)F)ccn2)ccc1-c1nc([C@@H]2CC[C@@](C(=O)O)(C(C)C)C2)n2ccnc(N)c12 [Example 60, (1S,3R)-3-[8-amino-1-(2-ethoxy-4-{[4-(trifluoromethyl)pyridin-2-yl]carbamoyl}phenyl)imidazo[1,5-a]pyrazin-3-yl]-1-(1-methylethyl) cyclopentane-carboxylic acid]
1.8 | 8740 | C[C@@]1(C(=O)O)CCN(c2nc(-c3ccc(C(=O)Nc4cc(C(F)(F)F)ccn4)cc3)c3c(N)nccn23)C1 [Example 44, (3R)-1-[8-amino-1-(4-{[4-(trifluoromethyl)pyridin-2-yl]carbamoyl}phenyl)imidazo[1,5-a]pyrazin-3-yl]-3-methylpyrrolidine-3-carboxylic acid]
2 | 10000 | Nc1nccn2c(-c3ccc(C(=O)O)[nH]3)nc(-c3ccc(C(=O)Nc4cc(C(F)(F)F)ccn4)cc3)c12 [Example 27, 5-[8-amino-1-(4-{[4-(trifluoromethyl)pyridin-2-yl]carbamoyl}phenyl)imidazo[1,5-a]pyrazin-3-yl]-1H-pyrrole-2-carboxylic acid]
